No end group written: not given here.

Assay [1] is described as follows: Time-lapse fluorescence microscopy imaging of peptide-induced vesicle rupture. As to the method:
Highly parallel measurements of peptide-induced liposome rupture were conducted by time-lapsed epifluorescence microscopy imaging. An Eclipse Ti-E inverted microscope (Nikon) with a high-pressure mercury lamp, a CFI Plan Apochromat TIRF×60 oil-immersion objective (NA 1.49; Nikon) and an Andor iXon3 897 EMCCD camera (Andor Technology), was utilized for measurements. The samples were illuminated with a mercury lamp (Intenslight C-HGFIE) using a TRITC filter set. Briefly, glass coverslips were assembled into a microfluidic flow cell, and coated with a thin layer of PLL-g-PEG(-biotin), followed by tethering of 0.025 μg ml^−1 liposomes via biotin-neutravidin coupling. Peptide was then added at a volumetric rate of 100 μl min^−1, and micrographs were recorded every 5-30 s depending on the particular experiment. The initial time was defined by when the peptide solution entered the channel inlet. Data processing and analysis were conducted using ImageJ (National Institutes of Health) and Python(x,y) software packages. The diameter of individual liposomes was estimated based on fluorescence intensity values. […]
Using time-lapse fluorescence microscopy imaging, we further investigated the interactions of different versions of Peptides 2 and 4 with tethered vesicles at the single-vesicle level and saw different degrees of vesicle rupture in terms of total extent and speed (FIG. 14).

A further assay relates to DENV-3. Kind of assay: Plaque reduction neutralization assay, DENV-3. It is filed as cell-based, Dengue virus serotype 3. The note with it: Vero cells; virus pre-incubated with peptide 1 h at 37° C.; read-out: DENV-3 PRNT50. As to the method: (§1) Vero cells were seeded at 1×10^5 cells per well and incubated overnight. Twofold serial dilutions of peptide were incubated with 200-300 p.f.u. of virus for 1 h at 37° C. Cells were infected with the virus-peptide mixture for 1 h at 37° C. The inoculum was removed and 0.8% (wt/vol) methylcellulose in medium supplemented with 1% FBS was added. After 3-5 days incubation, plates were fixed and analysed for plaques by immunostaining (DENV). For immunostaining, the cells were fixed, followed by incubation with 4G2, a mouse anti-DENV E protein monoclonal antibody (1:2,000 dilution), for 16-20 h. After addition of a secondary antibody, goat anti-mouse IgG (H+L)-HRP conjugate (1:2,000 dilution), the TrueBlue peroxidase substrate (KPL) was added and the optical density was measured at a wavelength of 450 nm. For crystal violet staining, cells were fixed with fixing solution (5% glutaric dialdehyde in Dulbecco's PBS) followed by staining with 0.1% crystal violet in fixing solution. The IC50 value was calculated by comparing the relative number of plaques in peptide-treated samples to virus-only samples using a four-parameter logistic curve fit.
Background: Plaques are areas of infected cells; plaque reduction assays count them against a control.

Another assay deals with DENV-1. Kind of assay: Plaque reduction neutralization assay, DENV-1. Particulars: Vero cells; virus pre-incubated with peptide 1 h at 37° C.; read-out: DENV-1 PRNT50. Format: cell-based, Dengue virus serotype 1. As to the method:
as §1

The subject of another assay is DENV-2. Kind of assay: Plaque reduction neutralization assay, DENV-2. It is filed as cell-based, Dengue virus serotype 2. The note with it: Vero cells; virus pre-incubated with peptide 1 h at 37° C.; read-out: DENV-2 PRNT50. As to the method: as §1
For a further assay, the system named is DENV-4. Kind of assay: Plaque reduction neutralization assay, DENV-4. It is filed as cell-based, Dengue virus serotype 4. The note with it: Vero cells; virus pre-incubated with peptide 1 h at 37° C.; read-out: DENV-4 PRNT50. As to the method:
as §1

Regarding “AESWLWEVWDWVLHVLSDFKTCLKAKF (Synthetic_Anti-viral peptide derived from hepatitis C virus NS5A protein) [Peptide 10]”, in assay [1] (100 nM peptide), the “Vesicle rupture time, calcein (Cal) dye release” value (“Vesicle rupture time, calcein” for short) is listed as 2.38 ± 0.05 min and the “Vesicle rupture time, rhodamine (Rh) dye release” value (“Vesicle rupture time, rhodamine” below) worked out at 10.09 ± 0.10 min. In assay [1] (1000 nM peptide), the “Vesicle rupture time, calcein” value is recorded as 2.06 ± 0.02 min and the “Vesicle rupture time, rhodamine” value is on record as 2.09 ± 0.05 min.

With “AESWLWEVWDWVLHVLSDFKTCLKAKF [Peptide N10N]”, the IC50 in the assay on DENV-3 worked out at 259 nM; in the assay with DENV-1 it was 201 nM; in the assay on DENV-2, 936 nM; in the assay on DENV-4 it was 720 nM.

Consider “AESWLWEVWDWVLHVLSDFKTCLKAKF [Peptide N100]”, for which the IC50 in the assay on DENV-3 was determined as 1110 nM; in the assay with DENV-1 it was 194 nM; in the assay on DENV-2 it was 362 nM; in the assay on DENV-4 it was 1150 nM.

Turning to “AESWLWEVWDWVLHVLSDFKTCLKAKF [Peptide O100]”, the IC50 stood at 316 nM in the assay on DENV-3, 60.3 nM in the assay with DENV-1, 396 nM in the assay on DENV-2 and 567 nM in the assay on DENV-4.

As to “DGNWLYDIWNWVCTVLADFKLWLGAKI (Synthetic_Anti-viral peptide derived from hepatitis C virus NS5A protein) [Peptide 9]”, the “Vesicle rupture time, calcein” value is on record as 4.22 ± 0.17 min in assay [1] (100 nM peptide) and 1.41 ± 0.03 min in assay [1] (1000 nM peptide). For the same sequence, the “Vesicle rupture time, rhodamine” value in assay [1] (100 nM peptide) worked out at 6.50 ± 0.07 min; in assay [1] (1000 nM peptide), 1.87 ± 0.014 min.

Turning to “DGNWLYDIWNWVCTVLADFKLWLGAKI [Peptide N9N]”, the IC50 in the assay on DENV-3 turned out to be 476 nM; in the assay with DENV-1, 96.9 nM; with DENV-2, 550 nM; in the assay on DENV-4 it was 80.2 nM.

“DGNWLYDIWNWVCTVLADFKLWLGAKI [Peptide N9O]”: the IC50 in the assay on DENV-3 worked out at 262 nM; in the assay with DENV-1, 139 nM; with DENV-2 it was 185 nM; with DENV-4, 240 nM.

Regarding “DGNWLYDIWNWVCTVLADFKLWLGAKI [Peptide O9O]”, the IC50 in the assay with DENV-3 was 119 nM; in the assay with DENV-1 it was 50 nM; in the assay on DENV-2, 192 nM; in the assay on DENV-4 it was 139 nM.

Turning to “GDDWLHDIWDWVCIVLSDFKTWLSAKI (Synthetic_Anti-viral peptide derived from hepatitis C virus NS5A protein) [Peptide 8]”, in assay [1] (100 nM peptide), the “Vesicle rupture time, calcein” value is given as 2.49 ± 0.06 min and the “Vesicle rupture time, rhodamine” value is 3.28 ± 0.08 min. Further, in assay [1] (1000 nM peptide), the “Vesicle rupture time, calcein” value is on record as 1.70 ± 0.02 min and the “Vesicle rupture time, rhodamine” value stood at 1.78 ± 0.02 min.

Turning to “GDDWLHDIWDWVCIVLSDFKTWLSAKI [Peptide N8N]”, the IC50 in the assay on DENV-3 came to 271 nM; in the assay with DENV-1, 97.4 nM; with DENV-2, 253 nM; with DENV-4, 194 nM.

“GDDWLHDIWDWVCIVLSDFKTWLSAKI [Peptide N8O]”: the IC50 is 648 nM with DENV-3, 224 nM in the assay on DENV-1, 257 nM in the assay on DENV-2 and 343 nM with DENV-4.

“GDDWLHDIWDWVCIVLSDFKTWLSAKI [Peptide O8O]”: the IC50 in the assay on DENV-3 is 444 nM; in the assay with DENV-1 it was 69.2 nM; in the assay with DENV-2, 188 nM; in the assay with DENV-4 it was 709 nM.

Regarding “GSTWLRDIWDWVCTVLSDFRVWLKSKL (Synthetic_Anti-viral peptide derived from hepatitis C virus NS5A protein) [Peptide 11]”, the “Vesicle rupture time, calcein” value is listed as 4.15 ± 0.04 min in assay [1] (100 nM peptide) and 4.67 ± 0.08 min in assay [1] (1000 nM peptide). Besides, the “Vesicle rupture time, rhodamine” value in assay [1] (100 nM peptide) was 6.00 ± 0.13 min; in assay [1] (1000 nM peptide), 4.91 ± 0.38 min.

Regarding “GSTWLRDIWDWVCTVLSDFRVWLKSKL [Peptide N11N]”, the IC50 with DENV-3 was 289 nM; in the assay with DENV-1 it was 591 nM; in the assay with DENV-2 it was 924 nM; in the assay with DENV-4 it was 306 nM.

Consider “GSTWLRDIWDWVCTVLSDFRVWLKSKL [Peptide N11O]”, for which the IC50 is 947 nM in the assay on DENV-3, 131 nM with DENV-1, 280 nM with DENV-2 and 276 nM in the assay with DENV-4.

In the case of “GSTWLRDIWDWVCTVLSDFRVWLKSKL [Peptide O110]”, the IC50 was 490 nM in the assay on DENV-3, 258 nM in the assay on DENV-1, 1160 nM in the assay on DENV-2 and 810 nM in the assay on DENV-4.

“SDDWLRIIWDWVCSVVSDFKAWLSAKI (Synthetic_Anti-viral peptide derived from hepatitis C virus NS5A protein) [Peptide 5]”: the results for the “Vesicle rupture time, calcein” value in assay [1] (100 nM peptide) and in assay [1] (1000 nM peptide) were 4.69 ± 0.22 min and 2.53 ± 0.10 min, respectively. Further, the results for the “Vesicle rupture time, rhodamine” value in assay [1] (100 nM peptide) and in assay [1] (1000 nM peptide) were 15.25 ± 0.43 min and 11.20 ± 0.17 min, respectively.

For the sequence “SDDWLRIIWDWVCSVVSDFKAWLSAKI [Peptide N5N]”, the IC50 was 1380 nM in the assay with DENV-3, 236 nM in the assay with DENV-1, 545 nM in the assay with DENV-2 and 338 nM in the assay on DENV-4.

“SDDWLRIIWDWVCSVVSDFKAWLSAKI [Peptide N5O]”: the IC50 amounted to 1590 nM in the assay on DENV-3, 235 nM in the assay with DENV-1, 838 nM with DENV-2 and 649 nM in the assay on DENV-4.

With “SDDWLRTIWDWVCSVLADFKAWLSAKI (Synthetic_Anti-viral peptide derived from hepatitis C virus NS5A protein) [Peptide 7]”, in assay [1] (100 nM peptide), the “Vesicle rupture time, calcein” value is 2.41 ± 0.06 min and the “Vesicle rupture time, rhodamine” value worked out at 5.50 ± 0.11 min. Further, in assay [1] (1000 nM peptide), the “Vesicle rupture time, calcein” value is 1.47 ± 0.01 min and the “Vesicle rupture time, rhodamine” value turned out to be 2.13 ± 0.00 min.

With “SGDWLRIIWDWVCSVVSDFKTWLSAKI (Synthetic_Anti-viral peptide derived from hepatitis C virus NS5A protein) [Peptide 6]”, the “Vesicle rupture time, calcein” value is reported as 2.46 ± 0.02 min in assay [1] (100 nM peptide) and 1.57 ± 0.03 min in assay [1] (1000 nM peptide). For the same sequence, the “Vesicle rupture time, rhodamine” value in assay [1] (100 nM peptide) was 4.75 ± 0.06 min; in assay [1] (1000 nM peptide), 2.74 ± 0.03 min.

Regarding “SGSWLRDIWDWICEVLSDFKTWLKAKL (Synthetic_Anti-viral peptide derived from hepatitis C virus NS5A protein) [Peptide 1]”, the “Vesicle rupture time, calcein” value in assay [1] (100 nM peptide) is given as 5.95 ± 0.03 min; in assay [1] (1000 nM peptide), 4.67 ± 0.32 min. Besides, the “Vesicle rupture time, rhodamine” value in assay [1] (100 nM peptide) amounted to 10.58 ± 0.33 min; in assay [1] (1000 nM peptide) it was 6.13 ± 0.09 min.

Turning to “SGSWLRDIWEWVCSILTDFKNWLSAKL (Synthetic_Anti-viral peptide derived from hepatitis C virus NS5A protein) [Peptide 4]”, in assay [1] (100 nM peptide), the “Vesicle rupture time, calcein” value is given as 6.50 ± 0.3 min and the “Vesicle rupture time, rhodamine” value is 21.13 ± 0.38 min. Besides, in assay [1] (1000 nM peptide), the “Vesicle rupture time, calcein” value is recorded as 3.71 ± 0.07 min and the “Vesicle rupture time, rhodamine” value was determined as 9.51 ± 0.09 min.

With “SGSWLRDVWDWICTVLTDFKTWLQSKL [O2O] (not fully specified) [Peptide O2O, Peptide 2 with O and O terminal endings]”, the “Dependence of vesicle rupture on vesicle size (membrane-curvature sensing), single-vesicle analysis” value in assay [1] (small and large tethered vesicles) was “have membrane-curvature sensing mechanisms”.

As to SGSWLRDVWDWICTVLTDFKTWLQSKL [Peptide 2], in assay [1] (100 nM peptide), the “Vesicle rupture time, calcein” value is 5.54 ± 0.30 min and the “Vesicle rupture time, rhodamine” value was 8.69 ± 0.08 min. Moreover, in assay [1] (1000 nM peptide), the “Vesicle rupture time, calcein” value was 1.91 ± 0.04 min and the “Vesicle rupture time, rhodamine” value was determined as 3.13 ± 0.12 min.

Turning to SGSWLRDVWDWVCTILTDFKNWLTSKL [Peptide 3], in assay [1] (100 nM peptide), the “Vesicle rupture time, calcein” value is 4.53 ± 0.17 min and the “Vesicle rupture time, rhodamine” value came out at 8.41 ± 0.08 min. Further, in assay [1] (1000 nM peptide), the “Vesicle rupture time, calcein” value was 1.97 ± 0.11 min and the “Vesicle rupture time, rhodamine” value is recorded as 2.99 ± 0.03 min.

The record behind these values is US20250282830A1, “ANTI-VIRAL PEPTIDE COMPOSITIONS AND METHODS TO IMPROVE BIOLOGICAL ACTIVITY THEREOF” (priority 2021, published 2025).
